For one compound, anabolic activity results are on record in US20080199517A1, “Composition and a process thereof” (priority 2007, published 2008).

For this assay, the system named is castrated male adolescent rats. The assay can be described thus: Anabolic activity in castrated rats: organ weight. In kind it is in vivo, rats of Swiss Wistar strain. Conditions: castrated animals, result in words. The protocol: Male Adolescent rats of Swiss Wistar strain of body weight 55 gms are chosen for this experiment and are castrated. The castrated groups are divided into 2 groups. • 1. Control group castrated animals n=6 • 2. Drug treated castrated animals treated with test compound at 25 mg/kg n=6
Both the groups are fed ad libitum food and water and observed for 28 days. Their serum at the beginning of the experiment and at the end of the experiment are drawn and checked for Total testosterone, and free testosterone. The animals are sacrificed at the end of the experiment and seminal vesicle; ventral Prostate and Levator Ani are removed and weighed. These organ weights are compound with the control animals.

For `CC(COC1OC(CO)C(O)C(O)C1O)C(C)CC1(O)CC2CC3C4CC=C5CC(OC6OC(CO)C(O)C(O)C6OC6OC(C)C(O)C(O)C6O)CCC5(C)C4CCC3(C)C2C1C` (stereo not shown) [saponin of structural formula I], the anabolic activity result is reported as “does not showed any activity”.
